From patent publication US9662341B2, “Multifunctional topical formulation for the treatment of acne vulgaris and other skin conditions” (Kantian Sciences Corporation, priority 2011, dated 2017)
Read-outs that look alike come from different tables or passages of the source.

Tests used:
[1] = Percentage of mandelic acid in acid and salt forms at varying pH values; assay type: physicochemical
Description: The same consideration of activity vs. acid:salt forms applies to mandelic acid, where the antimicrobial activity of an aqueous solution containing this material is strongly dependent on the pH of the system.

[2] = test system: acne; settings: cited from earlier work
[3] = test system: E. coli; assay: Kill of E. coli within 30 seconds of contact (inventor's earlier studies); assay type: cell-based
[4] = HONO form in ratios of >~2:1 acid/salt

O=C(O)[C@H](O)c1ccccc1 [Mandelate]
Mandelate % ([1]; pH 2.46): 10% | Mandelate % ([1]; pH 2.81): 20% | Mandelate % ([1]; pH 3.04): 30% | Mandelate % ([1]; pH 3.23): 40% | Mandelate % ([1]; pH 3.41): 50% | Mandelate % ([1]; pH 3.59): 60% | Mandelate % ([1]; pH 3.78): 70% | Mandelate % ([1]; pH 4.01): 80%

O=NO [Nitrite]
Nitrite % (pH 1.5): 1.6% | Nitrite % (pH 2.0): 4.8% | Nitrite % (pH 2.3): 9.1% | Nitrite % (pH 2.6): 16.7% | Nitrite % (pH 2.8): 24.0% | Nitrite % (pH 3.0): 33.3% | Nitrite % (pH 3.3): 50.0% | Nitrite % (pH 3.5): 61.2% | Nitrite % (pH 4.0): 83.4% | Nitrite % (pH 4.5): 94.0% | Nitrite % (pH 5.0): 98.0%

O=C(O)CCCCCCCC(=O)O [azelaic acid]
Time for acne lesions to start disappearing ([2]; after starting topical application): one to two months | Efficacy versus other topical Rx formulations ([2]; benzoyl peroxide, tretinoin, antibiotics as comparators): works as well as other topical Rx formulations

CC(O)C(=O)O (centres unmarked) [lactic acid]
E. coli killed relative to malic acid [3]: 500 times

O=C(O)C(O)c1ccccc1 (centres unmarked) [mandelic acid]
E. coli killed relative to malic acid [3]: 1.5 million | E. coli killed relative to lactic acid ([3]; same conditions): 3000 times | Mandelic Acid % ([1]; pH 2.46): 90% | Mandelic Acid % ([1]; pH 2.81): 80% | Mandelic Acid % ([1]; pH 3.04): 70% | Mandelic Acid % ([1]; pH 3.23): 60% | Mandelic Acid % ([1]; pH 3.41): 50% | Mandelic Acid % ([1]; pH 3.59): 40% | Mandelic Acid % ([1]; pH 3.78): 30% | Mandelic Acid % ([1]; pH 4.01): 20%

O=NO [nitrous acid]
longer-range stability of nitrous acid systems [4]: significantly diminished | Nitrous Acid % (pH 1.5): 98.4% | Nitrous Acid % (pH 2.0): 95.2% | Nitrous Acid % (pH 2.3): 90.9% | Nitrous Acid % (pH 2.6): 83.3% | Nitrous Acid % (pH 2.8): 76.0% | Nitrous Acid % (pH 3.0): 66.7% | Nitrous Acid % (pH 3.3): 50.0% | Nitrous Acid % (pH 3.5): 38.8% | Nitrous Acid % (pH 4.0): 16.6% | Nitrous Acid % (pH 4.5): 6.0% | Nitrous Acid % (pH 5.0): 2.0%
